Data on two molecules can be found in patent US20260297031A1, “HYDROXYLAMINE-BASED BCR-ABL1 INHIBITORS FOR TREATMENT OF CANCER” (University of Georgia Research Foundation, Inc., priority 2023, published 2026).

Converted amounts (≈) assume the structure as drawn. “Also recorded” adds a separate entry of the source.

One may read the kinetic solubility as the concentration staying in solution when a stock, usually in DMSO, is diluted into the medium. By fraction remaining is commonly meant the share of the starting amount still present when the sample was taken. A high value points to less turnover. As usually defined, the logD is the decadic logarithm of the distribution of all forms, ionised or not, between an organic phase and buffer at a given pH.

One data set is described as follows: Aqueous solubility. The conditions noted are these: phosphate buffer, pH 7.4, aqueous buffer. On the procedure: Solubility Determinations (Independently Performed by Pharmaron Inc., Ninqbo, CN)
Test compounds and control compounds (progesterone or diclofenac) were initially prepared as 10 mM DMSO stock solutions. […] After such time, plugs and stir sticks were removed and the samples from the solubility sample plate were transferred into the filter plate. All the samples were then filtered and 5 μL of filtrate was taken and added along with 5 μL of DMSO and 490 μL of a 1:1 (v/v) mixture of H2O and acetonitrile containing internal standard (100 nM alprazolam, 200 nM Caffeine and 100 nM tolbutamide) to the plate yielding a final concentration of 3 μM. The samples were then analyzed by LC-MS and diluted according to the peak shape with ultrapure water.
Filtrate was analyzed and quantified against a standard of known concentration using LC coupled with MS peak identification and quantitation. Solubility values of test compounds and progesterone were calculated as follows and are presented as the mean of n=2 replicates: […]

A short description of data set [1]: Plasma protein binding by equilibrium dialysis, human plasma. Type of data set: in vitro ADME. On the procedure:
(§1) Plasma Protein Binding by Equilibrium Dialysis (Independently Performed by Pharmaron Inc., Ninqbo, CN)
(§2) Initially, 1 mM solutions of test compounds and the control compound (Ketoconzaole) were prepared in DMSO. After this, dialysis membranes were soaked in ultrapure water for 60 min to separate strips, followed by 20% aq. ethanol for 20 min, and finally in a dialysis buffer for 20 min. […] After this, 597 μL of blank plasma solution followed by 3 μL of the working solutions of either test compounds or control compound were added to a new plastic plate or separate plastic tube and the solutions were vortexed at 1,000 rpm for 2 min. Immediately after this, 50 μL of spiked plasma solution suspension was transferred to a 96-well plate to act as T=0 control. The remaining samples were treated in the same manner, whereby all remaining spiked plasma solutions were added to the incubator for the duration of the study.
(§3) Cells were then loaded with 120 μL of the plasma samples and dialyzed against an equal volume of dialysis buffer (PBS). […] At the end of incubation, the lid was removed and 50 μL of post-dialysis samples were removed from both buffer and plasma solution chambers into a separate 96-well plate for analysis. The plasma solutions (50 μL) were then added to the buffer samples along with an equal volume of PBS (50 μL) to the collected plasma solution samples. The plate was shaken at 1,000 rpm for 2 min and 400 μL of acetonitrile containing an appropriate internal standard was added to precipitate protein and release compound. The samples were then vortexed at 1,000 rpm for an additional 10 min followed by centrifugation at 3,220 g for 30 min. Supernatant (250 μL) was then added to a new 96-well plate and centrifuged again at 3,220 g for 30 min and 100 μL of this supernatant was then added to a new 96-well plate for analysis. The samples were analyzed by LC-MS/MS and 100 μL of distilled water was added to each sample prior to analysis.
(§4) Concentrations of test compounds and control compound in buffer and plasma solution chambers was determined and percentages of test compounds and control compound bound using the following equations (mean of n=2 replicates): […]
Background: In equilibrium dialysis free small molecules cross a membrane that holds back macromolecules.

Data set [2] is described as follows: Plasma protein binding by equilibrium dialysis, rat plasma. In kind it is in vitro ADME. On the procedure:
as §1, §2
as §3, with “Supernatant (250 μL) was then added to a new 96-well plate and centrifuged again at 3,220 g for 30 min and 100 μL of this supernatant was then added to a new 96-well plate for analysis.” left out
as §4

Data set [3] is described as follows: Metabolic stability in human liver microsomes. The conditions noted are these: human. In kind it is in vitro ADME. On the procedure:
(§5) Metabolic Stability in Liver Microsomes (Independently Performed by Pharmaron Inc., Ninqbo, CN)
(§6) This experiment was carried out under two separate set of conditions: i) with Cofactors (NADPH), which consisted of adding 25 μL of 10 mM NADPH to the incubations, giving a final NADPH concentration of 1 mM, and ii) without Cofactors (NADPH), which consisted of adding 25 μL of 100 mM phosphate buffer to the incubations. Under both sets of conditions, the final concentration of microsomes were 0.5 mg/mL. […] Samples were then centrifuged at 3,220 g for 40 min and aliquots of 100 μL of the supernatant were mixed with 100 μL of ultra-pure H2O and analyzed by LC-MS/MS.
(§7) Peak areas were determined from extracted ion chromatograms. The slope value, k, was determined by linear regression of the natural logarithm of the remaining percentage of the parent drug vs incubation time curve.
In general terms: Liver microsomes are vesicles of endoplasmic reticulum, rich in cytochrome P450 enzymes.

The nature of data set [4]: Metabolic stability in rat liver microsomes. In kind it is in vitro ADME. The conditions noted are these: rat. On the procedure: as §5, §6, §7
A short description of data set [5]: Metabolic stability in human hepatocytes. On the procedure:
Metabolic Stability in Hepatocytes (Independently Performed by Pharmaron Inc., Ninqbo, CN)
After thawing was complete, hepatocytes were transferred into a 50 mL conical tube containing thawing medium and the tube was then placed into a centrifuge and spun at 100 g for 10 min. […] Using AO/PI staining, cells were counted to determine the viable cell density. […] Subsequently, 2 μL of the 100 μM test compounds or control compound solutions was transferred into the respective wells of the 96-well non-coated plate to start the reaction. […] Aliquots of 100 μL of the supernatant were then diluted by 100 μL of ultra-pure water, and the mixture was analyzed by LC-MS/MS.
All calculations were carried out using Microsoft Excel. Peak areas were determined from extracted ion chromatograms. The in-vitro half-life (t1/2) of parent compound was determined by regression of the percent parent disappearance vs. time curve.

Data set [6] in a line: Metabolic stability in rat hepatocytes. In kind it is in vitro ADME. As to conditions: rat. On the procedure: All calculations were carried out using Microsoft Excel. Peak areas were determined from extracted ion chromatograms.
The subject of a further data set is Molt-4 cells. In words: In vitro CTG antiproliferative assay, Molt-4. Type of data set: cell-based. The conditions noted are these: for IC50: Homo sapiens, Molt-4 (BCR-ABL1−), 72 h. On the procedure:
(§8) In Vitro CTG Assay (Independently Performed By: Crown Bioscience, Taicanq, CN)
(§9) Cells listed in the table above were initially harvested during logarithmic growth period followed by re-suspension and counting using a Vi cell counter (cell viability was measured by trypan blue exclusion assay). Cells were then diluted and 90 μL cell suspensions were added to 96-well plates. Plates were then incubated overnight in a humidified incubator at 37° C. with 5% CO2. To(Time 0) plate was then taken by 10 μL of culture medium being added to each well followed by 50 μL CellTiter-Glo® Reagent being added. The contents were then mixed for 2 min on an orbital shake to facilitate cell lysis. Next, the plate was incubated at room temperature for 10 min to stabilize luminescent signal. Blackseal black sticker was placed to the bottom of each plate and the luminescence was recorded using EnVision multi label reader. Test compounds and 10 μL of each 10× compound working solutions was added according to the plate inoculation map. Plates were then placed back into the incubator and after 72 h, 50 μL CellTiter-Glo® was added to each well. Contents were then mixed for 2 min on an orbital shaker to facilitate cell lysis. The plate then was incubated at room temperature for 10 min to stabilize luminescent signal. Blackseal black sticker was placed to the bottom of each plate and the luminescence recorded using EnVision multi label reader.
Relative IC50 was calculated with a dose-response curve fitted using nonlinear regression model with a sigmoidal dose response on GraphPad Prism version 9.5.1. […] The formula for calculating survival rate was (n=3 replicates): […]

The subject of another data set is K562 cells. The data set is described as follows: Cell viability assay, K562. In kind it is cell-based.
For data set [7], the system named is P-glycoprotein (P-gp) and/or breast cancer resistance protein (BCRP). As to conditions: cited from earlier work.
The nature of data set [8]: LogD7.4 by shake flask method. The conditions noted are these: octanol/phosphate buffer, pH 7.4.
Method: Test compounds and control compound (Nicardipine) were initially prepared as 10 mM solutions in DMSO and 5 μL of each sample solution was placed into one 96-well plate. […] From the octanol buffer phase, 5 μL was transferred to a new 96-well plate followed by addition of 495 μL of a 1:1 (v/v) mixture of H2O and acetonitrile to yield 100-fold diluted samples. […] Diluted samples were then vortexed for 5 min at 1,000 rpm. 50 μL of buffer samples were then transferred to a new 96-well plate, followed by addition of 450 μL of a 1:1 (v/v) mixture of H2O and acetonitrile mixture containing internal standard yielding 10-fold diluted buffer samples. Samples were vortexed for 5 min at 1,000 rpm and then all samples underwent analysis by LC-MS/MS.
A further data set deals with T1, BCR-ABL1 T315I (Homo sapiens, UniProt P00519, T315I).
T1 construct: BCR (fusion partner, as the printed name BCR-ABL1 says)
The data set is described as follows: KinaseProfiler radiometric kinase assay, BCR-ABL1 T315I. Type of data set: biochemical. As to conditions: gatekeeper mutation.

Another data set has as its target mutant BCR-ABL1. The data set is described as follows: KinaseProfiler radiometric kinase assay, mutant BCR-ABL1 kinases as a group. Type of data set: biochemical, human. As to conditions: read-out: IC50 against (imatinib resistant / relevant) mutant BCR-ABL1 kinases; group of mutants. The source says: Biochemical Human RTK Kinase Enzymatic Radiometric Assay, KinaseProfiler (Independently Performed by Eurofins Cerep SA, FR)

The subject of a further data set is KU812 cells. The data set is described as follows: In vitro CTG antiproliferative assay, KU812. The conditions noted are these: KU812, 72 h. In kind it is cell-based.
A further data set relates to MEG-01 cells. In words: In vitro CTG antiproliferative assay, MEG-01. In kind it is cell-based. The conditions noted are these: MEG-01, 72 h. On the procedure:
as §8
as §9, with “Plates were then placed back into the incubator and after 72 h, 50 μL CellTiter-Glo® was added to each well. Contents were then mixed for 2 min on an orbital shaker to facilitate cell lysis. The plate then was incubated at room temperature for 10 min to stabilize luminescent signal.” left out
Relative IC50 was calculated with a dose-response curve fitted using nonlinear regression model with a sigmoidal dose response on GraphPad Prism version 9.5.1. […]

Another data set concerns SUP-B15 cells. In words: In vitro CTG antiproliferative assay, SUP-B15. Type of data set: cell-based. The conditions noted are these: SUP-B15, 72 h.
Another data set has as its system CHO-K1 cells. The conditions noted are these: +/− S9; 0.2-500 μM.

From the text for CHO-K1 cells: High content analysis and fluorescent image analysis were used to detect micronuclei. Cyclophosphamide was the positive control in the presence of metabolic activation by rat liver S9 and mitomycin C was the positive control without metabolic activation by rat liver S9.
Method for KU812 cells: (§10) Cells listed in the table above were initially harvested during logarithmic growth period followed by re-suspension and counting using a Vi cell counter (cell viability was measured by trypan blue exclusion assay). Cells were then diluted and 90 μL cell suspensions were added to 96-well plates. […] To(Time 0) plate was then taken by 10 μL of culture medium being added to each well followed by 50 μL CellTiter-Glo® Reagent being added. The contents were then mixed for 2 min on an orbital shake to facilitate cell lysis. Next, the plate was incubated at room temperature for 10 min to stabilize luminescent signal. Blackseal black sticker was placed to the bottom of each plate and the luminescence was recorded using EnVision multi label reader. Test compounds and 10 μL of each 10× compound working solutions was added according to the plate inoculation map. […] Contents were then mixed for 2 min on an orbital shaker to facilitate cell lysis. The plate then was incubated at room temperature for 10 min to stabilize luminescent signal. Blackseal black sticker was placed to the bottom of each plate and the luminescence recorded using EnVision multi label reader.
Method for SUP-B15 cells: as §10

`COc1cc(Nc2c(C#N)cnc3cc(OCCCN4CCN(C)CC4)c(OC)cc23)c(Cl)cc1Cl` [Bosutinib, bosutinib, reference compound] yielded a kinetic solubility at 2 h in the data set “Aqueous solubility” of 14 µM (≈ 7.43 µg/mL). For the same molecule, the “plasma protein binding, in words” value in data set [1] (human) and in [2] was “comparable unbound plasma protein fraction” throughout. Moreover, in data set [1] (human plasma, 360 min, 5 µM), the “% Bound” value is on record as 95.47%. The “% Unbound” value in [1] (human plasma, 360 min, 5 µM) is given as 4.52%. Also, the “fu, plasma %” value in data set [1] (human, 5 μM, 360 min) amounted to 4.5%; in [2] (5 μM, 360 min), 7.2%. In addition, the “stability in liver microsomes, in words” value in data set [3] and in data set [4] was “significant degradation” in each case. The “stability in hepatocytes, in words” value in data set [5] and in [6] was “comparably enhanced stability” in each case. In addition, in [5] (hepatocytes), the share remaining at 0.5 min worked out at 100%. Also, in data set [5] (hepatocytes), the amount remaining at 0.5 h is 79.3%. In [5] (hepatocytes), this molecule showed an amount remaining at 1 h of 54%. For the same molecule, in [5] (hepatocytes), the fraction remaining at 2 h was determined as 20.7%. In addition, the IC50 with Molt-4 cells was above 2000 nM. For the same molecule, the “antiproliferative activity, in words” value in the data set with K562 cells is “picomolar activity”. Besides, in data set [7], the “efflux transporter substrate (background)” value was “P-gp substrates; also recorded: potent substrates for efflux transporters”. In [8], the logD stood at 3.1.

Take `COc1cc(Nc2c(C#N)cnc3cc(OCCON4CCN(C)CC4)c(OC)cc23)c(Cl)cc1Cl` [Compound 7, 4-((2,4-dichloro-5-methoxyphenyl)amino)-6-methoxy-7-(2-((4-methylpiperazin-1-yl)oxy)ethoxy)quinoline-3-carbonitrile]: the “activity against BCR-ABL1 T315I, in words” value on BCR-ABL1 T315I was “slightly reduced activity”. In addition, the IC50 is below 1 nM on mutant BCR-ABL1 and above 2000 nM in the data set on Molt-4 cells. For the same molecule, the “antiproliferative activity, in words” value with KU812 cells is reported as “potent antiproliferative activity; also recorded: excellent antiproliferative activity”; in the data set on MEG-01 cells, “potent antiproliferative activity; also recorded: excellent antiproliferative activity”; in the data set with SUP-B15 cells, “reduced activity”; with Molt-4 cells (Molt-4, 72 h) it was “minimal activity”. The Micronucleus result in the data set with CHO-K1 cells was “neither mutagenic nor genotoxic; also recorded: Negative”.
